Entries after “also recorded” stand apart in the source; their conditions may differ.
Assays:
[1] = test system: SARS-COV-2 strain KCDC03; assay type: cell-based
[2] = test system: influenza A virus PR8 strain; assay type: cell-based
[3] = test system: spike (S) protein of SARS-COV-2; test: Palmitoylation assay in SARS-CoV-2-infected Vero E6 cells; assay type: cell-based; details: Vero E6, 20 μM; vs vehicle
Protocol: CO2 incubator. The cells were then washed with phosphate-buffered saline, and DMEM supplemented with 1 μg/ml TPCK-treated trypsin, 100 u/ml penicillin, and 100 ug/ml streptomycin was added. Afterward, the cells were incubated in a 37° C. CO2 incubator for 18 hours. […] Following an additional 18-hour incubation, the cells were washed with phosphate-buffered saline, treated with trypsin, harvested, and centrifuged. The palmitoylation assay (Badrilla, Leeds, UK) was then conducted on these cells according to the manufacturer's instructions.
The cell pellet was washed with phosphate-buffered saline and then mixed with Buffer A containing Thiol Blocking Reagent. The mixture was incubated at 40° C. for 4 hours with continuous stirring. Subsequently, 70% acetone was added to precipitate the proteins, and the supernatant was discarded. The acetone addition process was repeated five times. The pellet was thoroughly washed, followed by elution in a binding buffer at 40° C. for 3 hours. A portion of the eluted supernatant was mixed with Laemmli Sample Buffer and used as an input control for total protein, while the remainder underwent a purification process for palmitoylated proteins.
Initially, the total protein supernatant was mixed with CAPTUREome™ Capture Resin and Thio Cleavage Reagent, and the mixture was incubated on a rotary mixer at 20° C. for 3 hours. […]

[4] = test system: influenza A virus hemagglutinin (H) and M2 proteins; assay type: cell-based; details: A549, 20 μM; vs vehicle
[5] = test system: Porcine epidemic diarrhea coronavirus (QIAP1401); test: organism not typed; details: Vero C1008, 18 h
[6] = test system: Influenza A virus (H1N1) (PR8); test: microbe, parasite or virus in culture; details: H1N1|PR8, A549, 12 h, drug added after 12 hours, additional 12 hours
[7] = test system: Bovine coronavirus (KWD20); test: microbe, parasite or virus in culture; details: Betacoronavirus 1, 18 h
[8] = test system: Species A Rotavirus (NCDV); test: microbe, parasite or virus in culture; details: MA104, in Bos taurus, 12 h
[9] = test system: Porcine respiratory reproductive syndrome virus (LMY); test: microbe, parasite or virus in culture; details: Porcine reproductive and respiratory syndrome virus, MARC145, in Sus scrofa, 18 h
[10] = test system: Porcine sapovirus (Cowden); test: microbe, parasite or virus in culture; details: Sapporo virus, LLCPK, 18 h
[11] = MTT half-maximal cytotoxic concentration (CC50); details: rhesus monkey
Protocol: (§1) To determine the half-maximal cytotoxic concentration (CC50) of the lipase inhibitors atglistatin and CAY10499, Vero E6, A549, HRT-18G, MA104, MARC-145, and LLC-PK cells were prepared in monolayers in 96-well plates.
(§2) The cells were treated with the drugs for 24 hours, and the culture media was removed before addition of 200 μL of 3-(4,5-dimethylthiazol-2-yl)-2,5-diphenyl tetrazolium bromide (MTT) solution to each well. The plates were then incubated for 4 hours in a 5% CO2 incubator at 36° C. Subsequently, 150 μL of DMSO solution was added to each well and incubated at 20° C. The optical density (OD) was measured at 570 nm wavelength using an enzyme-linked immunosorbent assay (ELISA) reader.

[12] = MTT half-maximal cytotoxic concentration (CC50); details: pig
Protocol: as §1, §2

[13] = CC50 range over the cell line panel
Protocol: as §1, §2

[14] = test system: SARS-COV-2 KCDC03 strain; test: SARS-CoV-2-infected hamsters treated with lipase inhibitor; details: for alleviation (reduction) of pneumonia severity: 80 mg kg^−1 day^−1 intraperitoneally for 4.5 days; for pneumonia severity: 20, 40, 80 mg kg^−1 day^−1, dose-dependent; for production of free fatty acids and glycerol in lung tissue: 20 to 80 mg kg^−1 day^−1; for number of viral genes (viral genome copy number) in lung tissue / progeny viruses in lung tissue: fifth day post-infection; for weight loss: five days observation
[15] = test system: A549 cells
Protocol: as §1, §2

[16] = test system: SARS COV-2 KCDC03 strain; assay type: cell-based; details: SARS-CoV-2 spike protein, Vero E6; 1, 10, 20 μM
[17] = test system: influenza A virus PR8 strain; assay type: cell-based; details: influenza A virus M2 protein, A549; 1, 10, 20 μM
[18] = test system: bovine coronavirus KWD20 strain; assay type: cell-based; details: bovine coronavirus spike protein, HRT-18G; 1, 10, 20 μM
[19] = test system: porcine epidemic diarrhea coronavirus QIAP1401 strain; test: Viral antigen expression (Western blot, immunofluorescence) in infected Vero E6 cells; assay type: cell-based; details: PEDV nucleocapsid protein, 1, 10, 20 μM
Protocol: The virus was incubated at 37° C. for 18 hours, after which the medium was changed with a medium containing DABPU-EM or DABPU-DE at a final concentration of 1 μM, […], or 20 μM. Following an additional 18 hours of incubation, the Vero E6 cells in 6-well plates were washed with phosphate-buffered saline, collected by scaping, and centrifuged. The cell pellet thus obtained was subjected to Western blot analysis. The intensity of the porcine epidemic diarrhea coronavirus nucleocapsid protein detected was assessed by comparison with the relative positive signals of the internal control beta-actin using the ImageJ software. Separately, the Vero E6 cells in 8-well chambers were washed with phosphate-buffered saline, fixed with 4% paraformaldehyde, and then subjected to immunofluorescence staining for porcine epidemic diarrhea coronavirus nucleocapsid protein in the same manner as described in the foregoing.

[20] = test system: bovine species A rotavirus NCDV strain; test: Viral antigen expression (Western blot, immunofluorescence) in infected MA104 cells; assay type: cell-based; details: rotavirus VP6 protein, 1, 10, 20 μM
[21] = test system: porcine sapovirus Cowden strain; test: Viral antigen expression (Western blot, immunofluorescence) in infected LLC-PK cells; assay type: cell-based; details: porcine sapovirus VPg protein, 1, 10, 20 μM
[22] = test system: HRT18G cells; test: MTT half-maximal cytotoxic concentration (CC50); details: drugs for 24 hours
Protocol: as §1, §2

[23] = test system: LLC-PK cells; test: MTT half-maximal cytotoxic concentration (CC50); details: LLC-PK; drugs for 24 hours, MTT
Protocol: as §1, §2

[24] = listed as atglistatin (DABPU-DM)
[25] = vs untreated virus-inoculated group

Row | Compound | free fatty acids and glycerol in the cytoplasm [1] | number of lipid droplets [1] | progeny virus count [1] | viral gene count [1] | virus spike protein synthesis [1] | levels of free fatty acids and glycerol in the cytoplasm [2] | number of lipid droplets [2] | production of virus M2 protein [2] | progeny virus titer [2] | viral genome copy [2] | palmitoylation of the spike (S) protein of SARS-COV-2 [3] | palmitoylation of both hemagglutinin (H) and M2 proteins [4] | IC50 [5] [µM] | IC50 [6] [µM] | IC50 [7] [µM] | IC50 [8] [µM] | IC50 [9] [µM] | IC50 [10] [µM] | CC50 at 24 h [11] [µM] | CC50 at 24 h [12] [µM] | further results
1 | CN(C)C(=O)Nc1cccc(-c2ccc(N(C)C)cc2)c1 [Atglistatin, 3-(4′-(dimethylamino)-(1,1′-biphenyl)-3-yl)-1,1-dimethylurea] | significant decrease | did not decrease significantly | significant decrease | significant decrease | significant decrease | significant decrease | did not significantly decrease | significant decrease | significant decrease | significant decrease | significantly reduced | significantly decreased | 1.96 | 0.82 | 1.2 | 6.7 | 2.53 | 3.11 | 214 | 224 | CC50 at 24 h [13]: 182 to 269 µM; alleviation (reduction) of pneumonia severity [14]: 73%; alleviation (reduction) of pneumonia severity [14, 24]: 70%; pneumonia severity [14]: alleviating pneumonia severity in a dose-dependent manner; production of free fatty acids and glycerol in lung tissue [14]: significantly reducing; production of free fatty acids and glycerol in lung tissue [14, 24]: decreasing; number of viral genes (viral genome copy number) in lung tissue [14]: significant decrease; progeny viruses in lung tissue [14]: significant decrease; number of viral genes (viral genome copy number) in lung tissue [14, 24]: significantly reduced; progeny viruses in lung tissue [14, 24]: significantly reduced; weight loss [14]: ceasing weight loss; weight loss [14, 24]: blocking weight loss; level of viral antigens in the alveolar epithelial cells [14, 25]: significant decrease; lung lesions, including interstitial pneumonia, and number of virus-positive cells [14, 25]: alleviating and reducing; number of lipid droplets in alveolar epithelial cells [14, 25]: did not decrease significantly
2 | COc1nn(-c2ccc(NC(=O)OCc3ccccc3)c(C)c2)c(=O)o1 [CAY10499] | significant decrease | did not decrease significantly | significant decrease | significant decrease | significant decrease | significant decrease | did not significantly decrease | significant decrease | significant decrease | significant decrease | significantly reduced | significantly decreased |  |  |  |  |  |  |  |  | CC50 [15]: 106 µM
3 | CCN(CC)C(=O)Nc1cccc(-c2ccc(N(C)C)cc2)c1 [DABPU-DE] |  |  |  |  |  |  |  |  |  |  |  |  |  |  |  |  |  |  |  |  | expression levels of the viral antigen in infected cells [16]: higher inhibitory effects of DABPU-DE than DABPU-EM; expression levels of the viral antigen in infected cells [17]: higher inhibitory effects of DABPU-DE than DABPU-EM; expression levels of the viral antigen in infected cells [18]: higher inhibitory effects of DABPU-DE than DABPU-EM; expression levels of the viral antigen in infected cells [19]: higher inhibitory effects of DABPU-DE than DABPU-EM; expression levels of the viral antigen in infected cells [20]: higher inhibitory effects of DABPU-DE than DABPU-EM; expression levels of the viral antigen in infected cells [21]: higher inhibitory effects of DABPU-DE than DABPU-EM; CC50 [22]: 177 µM; CC50 [23]: 226 µM; alleviation (reduction) of pneumonia severity [14]: 75%; pneumonia severity [14]: alleviating pneumonia severity in a dose-dependent manner; production of free fatty acids and glycerol in lung tissue [14]: decreasing; also recorded: lower levels; number of viral genes (viral genome copy number) in lung tissue [14]: significantly reduced; progeny viruses in lung tissue [14]: significantly reduced; weight loss [14]: blocking weight loss
4 | CCN(C)C(=O)Nc1cccc(-c2ccc(N(C)C)cc2)c1 [DABPU-EM, 3-(4′-(dimethylamino)-(1,1′-biphenyl)-3-yl)-1-ethyl-1-methylurea] |  |  |  |  |  |  |  |  |  |  |  |  | 1.94 | 1.63 | 3.44 | 7.08 | 2.7 | 3.7 | 223 | 231 | expression levels of the viral antigen in infected cells [16]: inhibitory activity; expression levels of the viral antigen in infected cells [17]: inhibitory activity; expression levels of the viral antigen in infected cells [18]: inhibitory activity; expression levels of the viral antigen in infected cells [19]: inhibitory activity; expression levels of the viral antigen in infected cells [20]: inhibitory activity; expression levels of the viral antigen in infected cells [21]: inhibitory activity; CC50 at 24 h ([13]; human, African green monkey, dog, pig): 186 to 231 µM

Reference: US20240285557A1, “PHARMACEUTICAL COMPOSITION COMPRISING LIPASE INHIBITOR FOR TREATMENT OR TREATMENT OF RNA VIRAL INFECTIONS” (priority 2021, published 2024)
